Measured values reported in publication PMC9611521, “Optimization of Resveratrol Used as a Scaffold to Design Histone Deacetylase (HDAC-1 and HDAC-2) Inhibitors” (Pharmaceuticals, 2022).

Assays:
Assay type in all cases: biochemical
HDAC-2 = HDAC-2 (Homo sapiens, UniProt Q92769); assay: Enzymatic HDAC inhibition assay (fluorescence), HDAC-2
Procedure: (§1) Enzymatic assays to evaluate HDAC inhibition were performed, and the design involved three steps: (a) Preliminary screening to identify the most promising compounds; (b) Evaluation by a panel of HDAC isoforms to investigate selectivity; and (c) Determination of IC50 values. Firstly, compounds (4–7; 15–26) were evaluated at 10 µM against HDAC-1 and HDAC-2 (Table 2).
(§2) The enzymatic assay to evaluate HDAC inhibitory effects for all final compounds against the distinct isoforms was carried out in accordance with the previously described procedures (Lopes et al., 2021). All compounds were initially screened at 10 µM against HDAC-1 and HDAC-2. […] All the compounds were dissolved in DMSO. A serial dilution of the compounds was performed in 100% DMSO with the highest concentration at 1 mM. Each intermediate compound dilution (in 100% DMSO) was diluted 10x in assay buffer to form a 10% DMSO intermediate dilution in HDAC assay buffer. 5 µL of this dilution was added to a 50 µL reaction to bring the final concentration of DMSO to 1% in all the reactions. Three independent experiments were carried out in triplicate for all experiments. The fluorescence intensity was measured at an excitation of 360 nm and emission of 460 nm using a Tecan Infinite M1000 microplate reader, and the percentage of activity was calculated using the formula: % activity = (F − Fb)/(Ft − Fb), where F = the intensity of fluorescence in the presence of the compound. In the absence of the test compound, the fluorescent intensity (Ft) in each dataset was defined as 100% activity, while in the absence of HDAC, the fluorescent intensity (Fb) in each dataset was set to 0% activity.

HDAC-1 = HDAC-1 (Homo sapiens, UniProt Q13547); assay: Enzymatic HDAC inhibition assay (fluorescence), HDAC-1
Sequence of HDAC-1 (Q13547 whole entry): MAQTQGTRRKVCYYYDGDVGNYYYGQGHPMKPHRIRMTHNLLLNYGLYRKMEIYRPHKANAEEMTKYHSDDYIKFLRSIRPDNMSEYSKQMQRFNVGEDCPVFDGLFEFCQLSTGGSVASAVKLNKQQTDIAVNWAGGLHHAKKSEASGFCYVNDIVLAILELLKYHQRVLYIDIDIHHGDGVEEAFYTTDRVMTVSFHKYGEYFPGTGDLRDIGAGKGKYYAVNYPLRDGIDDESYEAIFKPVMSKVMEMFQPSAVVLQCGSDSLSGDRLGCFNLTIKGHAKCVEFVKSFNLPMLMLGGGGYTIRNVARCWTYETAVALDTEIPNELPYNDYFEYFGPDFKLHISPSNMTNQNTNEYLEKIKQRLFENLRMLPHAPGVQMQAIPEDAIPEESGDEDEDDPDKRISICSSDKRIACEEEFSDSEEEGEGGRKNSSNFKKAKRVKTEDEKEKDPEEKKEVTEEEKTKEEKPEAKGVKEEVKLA
Procedure: as §1, §2

HDAC-9 = HDAC-9 (Homo sapiens, UniProt Q9UKV0); assay: Enzymatic HDAC selectivity panel, HDAC-9; conditions: compound at 10 µM
Sequence of HDAC-9 (Q9UKV0 whole entry): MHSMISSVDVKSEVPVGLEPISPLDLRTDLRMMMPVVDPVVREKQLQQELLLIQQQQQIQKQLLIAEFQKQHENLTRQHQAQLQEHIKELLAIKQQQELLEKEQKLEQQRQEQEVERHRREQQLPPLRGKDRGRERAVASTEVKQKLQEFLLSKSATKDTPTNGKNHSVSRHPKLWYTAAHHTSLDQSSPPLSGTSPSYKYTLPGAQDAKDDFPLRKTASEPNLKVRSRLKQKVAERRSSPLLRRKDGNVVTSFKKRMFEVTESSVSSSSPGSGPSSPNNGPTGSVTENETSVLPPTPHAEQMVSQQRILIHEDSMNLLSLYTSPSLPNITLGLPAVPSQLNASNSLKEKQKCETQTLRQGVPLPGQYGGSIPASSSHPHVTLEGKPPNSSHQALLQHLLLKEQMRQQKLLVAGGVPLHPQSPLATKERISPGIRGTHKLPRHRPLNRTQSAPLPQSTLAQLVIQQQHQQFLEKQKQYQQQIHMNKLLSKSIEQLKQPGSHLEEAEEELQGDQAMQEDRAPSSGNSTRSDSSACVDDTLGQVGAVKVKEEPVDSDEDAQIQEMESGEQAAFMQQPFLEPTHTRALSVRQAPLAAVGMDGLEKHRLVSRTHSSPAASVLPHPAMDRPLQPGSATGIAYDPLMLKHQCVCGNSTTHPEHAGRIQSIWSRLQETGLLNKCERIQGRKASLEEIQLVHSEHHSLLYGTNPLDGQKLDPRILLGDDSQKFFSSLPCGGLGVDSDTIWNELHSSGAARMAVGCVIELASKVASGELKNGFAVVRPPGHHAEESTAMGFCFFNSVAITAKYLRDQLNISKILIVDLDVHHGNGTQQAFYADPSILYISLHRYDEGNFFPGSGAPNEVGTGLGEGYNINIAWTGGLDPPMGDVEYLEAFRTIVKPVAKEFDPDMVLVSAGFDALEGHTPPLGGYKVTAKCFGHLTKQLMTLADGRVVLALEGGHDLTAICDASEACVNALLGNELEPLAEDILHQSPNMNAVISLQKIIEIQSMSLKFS
Procedure: as §1
as §2, with “Three independent experiments were carried out in triplicate for all experiments.” left out, “In the absence of the test compound, the fluorescent intensity (Ft) in each dataset was defined as 100% activity, while in the absence of HDAC, the fluorescent intensity (Fb) in each dataset was set to 0% activity.” left out

HDAC-5 = HDAC-5 (Homo sapiens, UniProt Q9UQL6); assay: Enzymatic HDAC selectivity panel, HDAC-5; conditions: compound at 10 µM
Sequence of HDAC-5 (Q9UQL6 whole entry): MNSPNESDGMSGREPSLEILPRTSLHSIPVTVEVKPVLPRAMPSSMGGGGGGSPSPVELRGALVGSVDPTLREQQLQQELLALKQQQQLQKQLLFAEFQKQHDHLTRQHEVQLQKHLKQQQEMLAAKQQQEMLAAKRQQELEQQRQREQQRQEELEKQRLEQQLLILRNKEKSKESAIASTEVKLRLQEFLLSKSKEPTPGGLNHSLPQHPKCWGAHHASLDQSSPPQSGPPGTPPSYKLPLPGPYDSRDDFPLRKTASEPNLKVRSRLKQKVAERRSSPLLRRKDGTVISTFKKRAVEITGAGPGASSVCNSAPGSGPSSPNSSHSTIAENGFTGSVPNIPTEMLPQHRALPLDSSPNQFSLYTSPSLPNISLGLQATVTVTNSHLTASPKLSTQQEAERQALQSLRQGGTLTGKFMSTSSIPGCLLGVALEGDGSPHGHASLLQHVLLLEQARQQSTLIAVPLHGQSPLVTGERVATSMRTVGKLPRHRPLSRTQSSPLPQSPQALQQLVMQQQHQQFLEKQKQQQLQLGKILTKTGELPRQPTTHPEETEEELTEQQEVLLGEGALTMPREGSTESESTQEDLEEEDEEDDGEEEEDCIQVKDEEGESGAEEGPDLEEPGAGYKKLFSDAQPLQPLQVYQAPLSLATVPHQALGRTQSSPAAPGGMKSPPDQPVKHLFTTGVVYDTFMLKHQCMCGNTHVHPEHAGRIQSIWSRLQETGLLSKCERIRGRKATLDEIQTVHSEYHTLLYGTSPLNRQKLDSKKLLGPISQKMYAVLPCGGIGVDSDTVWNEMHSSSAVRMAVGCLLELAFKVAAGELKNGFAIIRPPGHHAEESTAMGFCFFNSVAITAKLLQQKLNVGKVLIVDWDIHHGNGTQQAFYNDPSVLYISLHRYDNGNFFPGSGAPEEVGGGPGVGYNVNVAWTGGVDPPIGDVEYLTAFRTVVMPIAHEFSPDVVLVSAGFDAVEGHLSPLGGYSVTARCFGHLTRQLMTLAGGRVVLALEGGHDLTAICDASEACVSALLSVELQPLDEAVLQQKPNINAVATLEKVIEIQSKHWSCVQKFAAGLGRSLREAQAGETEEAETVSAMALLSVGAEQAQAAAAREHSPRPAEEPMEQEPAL
Procedure: as §1
as §2, with “Three independent experiments were carried out in triplicate for all experiments.” left out, “In the absence of the test compound, the fluorescent intensity (Ft) in each dataset was defined as 100% activity, while in the absence of HDAC, the fluorescent intensity (Fb) in each dataset was set to 0% activity.” left out

HDAC-3 = HDAC-3 (Homo sapiens, UniProt O15379); assay: Enzymatic HDAC selectivity panel, HDAC-3; conditions: compound at 10 µM
Sequence of HDAC-3 (O15379 whole entry): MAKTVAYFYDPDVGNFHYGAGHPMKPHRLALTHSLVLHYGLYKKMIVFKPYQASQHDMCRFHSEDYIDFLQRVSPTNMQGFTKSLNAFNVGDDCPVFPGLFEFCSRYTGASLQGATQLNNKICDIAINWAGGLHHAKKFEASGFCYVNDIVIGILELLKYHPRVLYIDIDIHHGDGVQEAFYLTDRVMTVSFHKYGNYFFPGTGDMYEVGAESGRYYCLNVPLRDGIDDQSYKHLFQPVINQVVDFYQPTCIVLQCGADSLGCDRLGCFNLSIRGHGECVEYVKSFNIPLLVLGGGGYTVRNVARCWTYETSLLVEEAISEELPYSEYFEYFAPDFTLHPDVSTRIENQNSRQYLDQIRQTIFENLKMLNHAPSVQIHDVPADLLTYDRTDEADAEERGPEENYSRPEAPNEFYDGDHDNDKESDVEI
Sequence of HDAC-3 (Q9Y618 395-489 partner limits assumed): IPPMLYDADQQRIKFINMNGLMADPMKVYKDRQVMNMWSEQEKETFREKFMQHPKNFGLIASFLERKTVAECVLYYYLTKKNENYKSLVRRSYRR
Procedure: as §1
as §2, with “Three independent experiments were carried out in triplicate for all experiments.” left out, “In the absence of the test compound, the fluorescent intensity (Ft) in each dataset was defined as 100% activity, while in the absence of HDAC, the fluorescent intensity (Fb) in each dataset was set to 0% activity.” left out

HDAC-6 = target: T1, HDAC-6 (Homo sapiens, UniProt Q9UBN7); assay: Enzymatic HDAC selectivity panel, HDAC-6; conditions: compound at 10 µM
T1 sequence (Q9UBN7 1-1215): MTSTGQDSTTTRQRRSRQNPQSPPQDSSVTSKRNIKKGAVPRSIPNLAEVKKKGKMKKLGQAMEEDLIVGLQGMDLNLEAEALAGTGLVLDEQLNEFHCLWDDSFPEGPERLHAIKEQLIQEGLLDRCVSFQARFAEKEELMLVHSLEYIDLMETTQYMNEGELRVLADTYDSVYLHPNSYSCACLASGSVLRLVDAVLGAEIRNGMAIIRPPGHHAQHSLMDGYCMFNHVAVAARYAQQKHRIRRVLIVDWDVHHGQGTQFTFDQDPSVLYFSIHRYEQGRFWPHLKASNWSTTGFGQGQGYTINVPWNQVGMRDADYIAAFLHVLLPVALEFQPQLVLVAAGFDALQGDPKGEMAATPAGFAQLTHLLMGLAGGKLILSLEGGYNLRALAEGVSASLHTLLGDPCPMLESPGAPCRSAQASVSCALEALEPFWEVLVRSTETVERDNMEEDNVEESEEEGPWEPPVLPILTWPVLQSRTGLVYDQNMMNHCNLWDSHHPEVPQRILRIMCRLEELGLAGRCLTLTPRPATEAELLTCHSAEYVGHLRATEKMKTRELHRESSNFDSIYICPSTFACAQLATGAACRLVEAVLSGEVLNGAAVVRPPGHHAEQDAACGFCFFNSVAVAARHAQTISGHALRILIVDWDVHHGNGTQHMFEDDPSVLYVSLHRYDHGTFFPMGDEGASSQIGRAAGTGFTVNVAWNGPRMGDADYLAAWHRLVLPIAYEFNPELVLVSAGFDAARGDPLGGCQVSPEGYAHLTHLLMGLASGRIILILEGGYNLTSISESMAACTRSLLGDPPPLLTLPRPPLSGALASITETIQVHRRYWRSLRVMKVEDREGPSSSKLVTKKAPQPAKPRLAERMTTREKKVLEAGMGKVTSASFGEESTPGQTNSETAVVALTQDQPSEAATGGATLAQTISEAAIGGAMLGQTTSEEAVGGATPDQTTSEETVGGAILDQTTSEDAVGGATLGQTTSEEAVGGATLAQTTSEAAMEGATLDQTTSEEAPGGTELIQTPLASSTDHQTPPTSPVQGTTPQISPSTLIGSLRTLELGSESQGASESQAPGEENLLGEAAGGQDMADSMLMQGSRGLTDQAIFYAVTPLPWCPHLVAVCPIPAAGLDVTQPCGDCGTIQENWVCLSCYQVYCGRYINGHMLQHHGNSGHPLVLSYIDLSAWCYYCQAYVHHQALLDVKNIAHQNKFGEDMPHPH
Procedure: as §1
as §2, with “Three independent experiments were carried out in triplicate for all experiments.” left out, “In the absence of the test compound, the fluorescent intensity (Ft) in each dataset was defined as 100% activity, while in the absence of HDAC, the fluorescent intensity (Fb) in each dataset was set to 0% activity.” left out

HDAC-4 = HDAC-4 (Homo sapiens, UniProt P56524); assay: Enzymatic HDAC selectivity panel, HDAC-4; conditions: compound at 10 µM
Sequence of HDAC-4 (P56524 whole entry): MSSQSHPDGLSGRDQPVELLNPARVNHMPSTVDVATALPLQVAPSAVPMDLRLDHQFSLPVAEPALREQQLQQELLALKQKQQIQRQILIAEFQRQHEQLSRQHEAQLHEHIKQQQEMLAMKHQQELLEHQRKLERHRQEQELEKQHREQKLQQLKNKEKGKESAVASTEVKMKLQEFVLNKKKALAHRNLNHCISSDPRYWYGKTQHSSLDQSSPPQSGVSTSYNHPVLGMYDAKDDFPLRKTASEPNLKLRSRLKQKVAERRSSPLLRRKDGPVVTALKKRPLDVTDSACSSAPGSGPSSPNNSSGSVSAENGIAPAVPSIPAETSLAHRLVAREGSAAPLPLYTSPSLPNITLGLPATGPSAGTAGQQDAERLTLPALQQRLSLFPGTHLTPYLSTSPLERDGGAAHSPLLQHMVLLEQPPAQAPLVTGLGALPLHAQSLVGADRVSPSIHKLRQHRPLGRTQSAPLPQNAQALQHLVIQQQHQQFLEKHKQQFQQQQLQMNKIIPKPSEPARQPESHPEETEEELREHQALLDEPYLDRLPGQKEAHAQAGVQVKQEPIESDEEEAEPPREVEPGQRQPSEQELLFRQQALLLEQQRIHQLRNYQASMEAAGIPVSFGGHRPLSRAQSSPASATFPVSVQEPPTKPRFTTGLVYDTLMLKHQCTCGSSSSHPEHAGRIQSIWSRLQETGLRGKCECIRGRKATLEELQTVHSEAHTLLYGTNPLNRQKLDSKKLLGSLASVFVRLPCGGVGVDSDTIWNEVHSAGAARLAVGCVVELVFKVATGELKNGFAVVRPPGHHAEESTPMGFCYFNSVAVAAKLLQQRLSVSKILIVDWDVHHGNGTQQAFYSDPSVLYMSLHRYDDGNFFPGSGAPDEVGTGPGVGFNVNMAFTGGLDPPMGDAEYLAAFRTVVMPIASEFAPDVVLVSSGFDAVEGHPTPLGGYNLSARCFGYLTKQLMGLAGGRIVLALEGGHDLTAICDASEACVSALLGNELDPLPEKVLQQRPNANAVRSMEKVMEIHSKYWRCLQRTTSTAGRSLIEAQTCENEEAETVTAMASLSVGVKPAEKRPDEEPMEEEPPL
Procedure: as §1
as §2, with “Three independent experiments were carried out in triplicate for all experiments.” left out, “In the absence of the test compound, the fluorescent intensity (Ft) in each dataset was defined as 100% activity, while in the absence of HDAC, the fluorescent intensity (Fb) in each dataset was set to 0% activity.” left out

HDAC-11 = target: T2, HDAC-11 (Homo sapiens, UniProt Q96DB2); assay: Enzymatic HDAC selectivity panel, HDAC-11; conditions: compound at 10 µM
T2 sequence (Q96DB2 1-347): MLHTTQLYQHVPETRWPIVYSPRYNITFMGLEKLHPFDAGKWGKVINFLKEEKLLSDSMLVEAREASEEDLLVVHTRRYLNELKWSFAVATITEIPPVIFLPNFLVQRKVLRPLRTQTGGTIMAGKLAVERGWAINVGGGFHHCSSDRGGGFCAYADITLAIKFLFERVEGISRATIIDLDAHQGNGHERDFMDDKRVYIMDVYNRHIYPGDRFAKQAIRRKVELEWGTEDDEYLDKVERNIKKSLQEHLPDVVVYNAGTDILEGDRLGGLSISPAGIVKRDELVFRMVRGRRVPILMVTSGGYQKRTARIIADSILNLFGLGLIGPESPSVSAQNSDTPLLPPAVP
Procedure: as §1
as §2, with “Three independent experiments were carried out in triplicate for all experiments.” left out, “In the absence of the test compound, the fluorescent intensity (Ft) in each dataset was defined as 100% activity, while in the absence of HDAC, the fluorescent intensity (Fb) in each dataset was set to 0% activity.” left out

Sequence of HDAC-2 (Q92769 whole entry, canonical isoform): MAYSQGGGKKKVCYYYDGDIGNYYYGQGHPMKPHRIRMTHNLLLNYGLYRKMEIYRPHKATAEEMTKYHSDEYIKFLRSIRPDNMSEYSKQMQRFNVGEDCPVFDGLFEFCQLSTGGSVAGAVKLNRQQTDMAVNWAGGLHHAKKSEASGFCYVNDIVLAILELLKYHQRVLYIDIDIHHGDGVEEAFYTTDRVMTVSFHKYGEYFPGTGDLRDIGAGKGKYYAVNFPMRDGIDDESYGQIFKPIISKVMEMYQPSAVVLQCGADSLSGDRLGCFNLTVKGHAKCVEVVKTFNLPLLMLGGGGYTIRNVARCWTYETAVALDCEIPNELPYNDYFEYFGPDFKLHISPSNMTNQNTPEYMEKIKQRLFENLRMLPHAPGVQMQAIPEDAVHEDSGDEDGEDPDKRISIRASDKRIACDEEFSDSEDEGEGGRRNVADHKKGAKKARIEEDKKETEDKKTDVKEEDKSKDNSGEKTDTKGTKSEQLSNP

Nc1ccc(CCc2ccc(C(=O)Nc3ccccc3N)cc2)cc1 [Compound (5)]
inhibition at 10 µM (HDAC-2; compound at 10 µM): 93% | HDAC-2 inhibition (HDAC-2; compound at 10 µM, 10 µM): 92 ± 0.8% | IC50 (HDAC-2; substrate 10 µM): 370 nM | inhibition at 10 µM (HDAC-1; compound at 10 µM): 92% | HDAC-1 inhibition (HDAC-1; compound at 10 µM, 10 µM): 93 ± 1.0% | IC50 (HDAC-1; substrate 10 µM): 440 nM | inhibition at 10 µM (HDAC-9): 7 ± 0.4% | inhibition at 10 µM (HDAC-5): 5 ± 0.5% | inhibition at 10 µM (HDAC-3): 82 ± 1.2% | inhibition at 10 µM (HDAC-6): 3 ± 0.4% | inhibition at 10 µM (HDAC-4): 5 ± 0.4% | inhibition at 10 µM (HDAC-11): 15 ± 0.6%
